Where two headings read alike, the source gives them in different places.
Key:
[1] = target: T1, PDE2 (Homo sapiens, UniProt O00408); experiment: Inhibition of PDE2 (radioenzymatic phosphodiesterase assay); type: biochemical
T1 construct: PDE2 was isolated from human platelets, provided by Etablissement Français du Sang-Alsace; tissue Etablissement Français du Sang-Alsace; host or cells: human platelets
Procedure: (§1) 2.1.1. Isolation of Phosphodiesterases from Smooth Muscle A 3 g segment of bovine aortic media cut into pieces with scissors was homogenized with an ultra-turrax then a potter glass/glass homogenizer in 7 volumes by weight of buffer A containing a protease inhibitor cocktail (20 mM Tris-HCl, 0.25 M saccharose, 2 mM magnesium acetate, 1 mM dithiothreitol, 5 mM EGTA, 2000 U/ml aprotinin, 10 mg/l leupeptin and 10 mg/l soya trypsic inhibitor). The homogenizate was centrifuged at 105,000 g for 1 hour. The supernatant was loaded on a DEAE-Sephacel column (15×1.6 cm) pre-equilibrated with buffer B (buffer A without the saccharose, EGTA and protease inhibitors). The column was washed until there was no detectable absorption at 280 nm, then eluted with a linear gradient of NaCl (0-0.5 M) in buffer B. 3-ml fractions were collected and enzyme activity was determined under the conditions described hereinbelow to localize the different enzymes PDE1, PDE3, PDE4 and PDE5 which were aliquoted and frozen at −80° C. (Lugnier et al., Biochem. Phamacol., 1986, 35: 1746-1751). PDE2 was isolated from human platelets, provided by Etablissement Français du Sang-Alsace, according to Kameni Tcheudji J F et al., (J. Mol. Biol. 2001; 310: 181-791), and stored until use at −80° C. in small aliquots.
(§2) Cyclic nucleotide phosphodiesterase activity was determined by a radioenzymatic method using tritium-labelled cyclic GMP or AMP (1 μM) as substrate (Lugnier et al., 1986). ^3H-labelled adenosine or guanosine monophosphate formed by hydrolysis of the radiolabelled cyclic nucleotide was then converted to ^3H-labelled adenosine or guanosine in a second reaction with […] in excess. The nucleoside formed was separated from the nucleotides by anion exchange chromatography. Nucleoside radioactivity was determined by liquid scintillation counting. Enzymatic incubations were carried out under conditions allowing no more than 15% hydrolysis of the substrate; each point was performed in duplicate.
The concentration of substance which inhibits enzymatic activity by 50% (IC50) at 1 μM cyclic AMP was calculated by nonlinear regression from the experimental values of hydrolysis rate (Prism, GraphPad).

[2] = tested on: PDE4; experiment: Selectivity: inhibition of PDE4 (radioenzymatic assay); type: biochemical, bovine; details: Table 2; 10 μM compound
Procedure: as §1, §2
(§3) The activity of the compounds was evaluated on other phosphodiesterase isoforms, particularly basal state or calmodulin-activated PDE1 from vascular smooth muscle, PDE3, PDE4 and PDE5 from vascular smooth muscle. The results obtained are presented in Tables 1 and 2 hereinbelow and are expressed as the percentage inhibition of enzymatic activity produced by […] of the test compound.

[3] = target: T2, 5-HT transporter (Homo sapiens, UniProt P31645); experiment: Serotonergic transporter binding ([3H]imipramine); details: [3H]imipramine 2 nM, HEK-293 recombinant, read-out: percentage inhibition at 10 μM of control specific binding to the serotonergic transporter
T2 construct: expressed in transfected cells; host or cells: HEK-293
Procedure: The serotonergic 5-HT transporter was isolated from human recombinant HEK-293 cells according to the method described by Tatsumi et al. (1997), Pharmacological profile of antidepressants and related compounds at human monoamine transporters, Eur. J. Pharmacol., 340: 249-258.
Serotonergic transporter binding was determined by a radioligand method using tritium-labelled imipramine (2 nM) as substrate (Tatsumi et al., 1999). Ligand radioactivity was determined by liquid scintillation counting. Ligand incubations were carried out for thirty minutes at 22° C. The experiment was conducted in duplicate.
The specific ligand binding to the serotonergic transporter was defined as the difference between the total binding and the non specific binding determined in presence of an excess of unlabelled ligand. The results obtained are presented in Table 3 hereinbelow and are expressed as percent of control specific binding and as a percent inhibition of control specific binding obtained in presence of 10 μM of substance.

[4] = tested on: σ receptors; experiment: Isolated organ bioassay, field-stimulated vas deferens: test for antagonist activity; design: species or system guinea pig; details: for Response to (+)SKF-10,047 (1.0 10^−4 M) in the presence of the compound: mean, n=2
Procedure: Segments of guinea pig vas deferens were suspended in 20-ml organ baths containing an oxygenated (95% O2 and 5% CO2) and pre-warmed (37° C.) physiological salt solution of the following composition (in mM): NaCl 118.0, KCl 4.7, MgSO4 1.2, CaCl2 2.5, KH2PO4 1.2, NaHCO3 25.0 and glucose 11.0 (pH 7.4). Yohimbine (1 μM), (−) sulpiride (1 μM), atropine (1 μM) and naloxone (1 μM) were also present throughout the experiments to block the α2-adrenergic, dopamine D2, muscarinic and opioid receptors, respectively. The tissues were connected to force transducers for isometric tension recordings. They were stretched to a resting tension of 0.5 g, allowed to equilibrate for at least 30 min during which time they were washed repeatedly and the tension readjusted. Thereafter, they were stimulated electrically using a constant current stimulator.
The tissues were exposed to a submaximal concentration of the reference agonist (+) SKF-10047 (100 μM) to obtain a control response. After stabilization of the (+) SKF-10047-induced response, increasing concentrations of substance or the reference antagonist rimcazole were added cumulatively. Each concentration was left in contact with the tissues until a stable response was obtained or for a maximum of 15 min. If it occurred, an inhibition of the (+) SKF-10047-induced increase in twitch contraction amplitude by substance indicated an antagonist activity at the σ receptors.
The parameter measured was the maximum change in the twitch contraction amplitude induced by each compound concentration. The results are expressed as a percent variation of the control twitch contraction amplitude (mean values). The effects of substance tested at 1.0 10^−6 M, 3.0 10^−6 M and 1.0 10^−5 M for agonist and antagonist activities at the σ receptors in the guinea pig vas deferens bioassay are summarized in Tables 6-7 where those of the reference compounds are also reported.

[5] = target: T3, PDE3 (Bos taurus, UniProt A0A3Q1M1E8); experiment: Selectivity: inhibition of PDE3 (radioenzymatic assay); type: biochemical, bovine; details: Table 2; 10 μM compound; read-out: PDE3 percentage inhibition at 10 μM
T3 sequence (A0A3Q1M1E8 1-1126): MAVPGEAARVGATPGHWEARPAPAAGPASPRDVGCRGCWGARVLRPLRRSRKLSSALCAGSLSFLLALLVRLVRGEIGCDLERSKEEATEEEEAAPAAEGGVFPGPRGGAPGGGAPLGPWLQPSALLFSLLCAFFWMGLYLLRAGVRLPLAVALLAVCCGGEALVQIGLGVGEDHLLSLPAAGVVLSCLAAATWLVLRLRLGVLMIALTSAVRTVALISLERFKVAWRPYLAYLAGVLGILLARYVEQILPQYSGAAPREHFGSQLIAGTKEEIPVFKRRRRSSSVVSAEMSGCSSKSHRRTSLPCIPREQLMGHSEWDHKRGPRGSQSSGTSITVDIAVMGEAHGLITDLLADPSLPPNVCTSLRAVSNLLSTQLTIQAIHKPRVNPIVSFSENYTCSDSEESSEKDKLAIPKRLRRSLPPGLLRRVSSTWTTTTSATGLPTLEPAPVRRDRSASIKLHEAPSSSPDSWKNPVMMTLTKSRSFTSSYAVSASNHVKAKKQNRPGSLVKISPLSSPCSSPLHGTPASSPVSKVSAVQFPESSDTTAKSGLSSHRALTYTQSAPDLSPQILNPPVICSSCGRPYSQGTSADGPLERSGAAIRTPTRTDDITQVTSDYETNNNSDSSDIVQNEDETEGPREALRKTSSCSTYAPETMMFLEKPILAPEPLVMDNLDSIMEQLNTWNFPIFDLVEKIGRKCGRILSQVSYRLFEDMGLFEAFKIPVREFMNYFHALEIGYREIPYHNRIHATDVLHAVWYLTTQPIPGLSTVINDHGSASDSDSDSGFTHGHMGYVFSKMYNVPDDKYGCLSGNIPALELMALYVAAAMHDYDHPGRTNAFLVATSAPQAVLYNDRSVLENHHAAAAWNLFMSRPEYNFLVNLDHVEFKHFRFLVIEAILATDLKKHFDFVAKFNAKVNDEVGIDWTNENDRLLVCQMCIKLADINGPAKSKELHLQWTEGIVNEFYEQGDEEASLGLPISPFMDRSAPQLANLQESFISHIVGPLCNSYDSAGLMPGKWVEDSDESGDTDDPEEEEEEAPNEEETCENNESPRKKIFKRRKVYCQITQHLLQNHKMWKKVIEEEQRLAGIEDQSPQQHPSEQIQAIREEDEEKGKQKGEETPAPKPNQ
Procedure: as §1, with “PDE2 was isolated from human platelets, provided by Etablissement Français du Sang-Alsace, according to Kameni Tcheudji J F et al., (J. Mol. Biol. 2001; 310: 181-791), and stored until use at −80° C. in small aliquots.” left out
as §2, with “The nucleoside formed was separated from the nucleotides by anion exchange chromatography.” left out, “Enzymatic incubations were carried out under conditions allowing no more than 15% hydrolysis of the substrate; each point was performed in duplicate.” left out
as §3

[6] = Table 1, 10 μM compound, 1 μM cyclic AMP, read-out: PDE2 percentage inhibition at 10 μM

T1 sequence (O00408 whole entry): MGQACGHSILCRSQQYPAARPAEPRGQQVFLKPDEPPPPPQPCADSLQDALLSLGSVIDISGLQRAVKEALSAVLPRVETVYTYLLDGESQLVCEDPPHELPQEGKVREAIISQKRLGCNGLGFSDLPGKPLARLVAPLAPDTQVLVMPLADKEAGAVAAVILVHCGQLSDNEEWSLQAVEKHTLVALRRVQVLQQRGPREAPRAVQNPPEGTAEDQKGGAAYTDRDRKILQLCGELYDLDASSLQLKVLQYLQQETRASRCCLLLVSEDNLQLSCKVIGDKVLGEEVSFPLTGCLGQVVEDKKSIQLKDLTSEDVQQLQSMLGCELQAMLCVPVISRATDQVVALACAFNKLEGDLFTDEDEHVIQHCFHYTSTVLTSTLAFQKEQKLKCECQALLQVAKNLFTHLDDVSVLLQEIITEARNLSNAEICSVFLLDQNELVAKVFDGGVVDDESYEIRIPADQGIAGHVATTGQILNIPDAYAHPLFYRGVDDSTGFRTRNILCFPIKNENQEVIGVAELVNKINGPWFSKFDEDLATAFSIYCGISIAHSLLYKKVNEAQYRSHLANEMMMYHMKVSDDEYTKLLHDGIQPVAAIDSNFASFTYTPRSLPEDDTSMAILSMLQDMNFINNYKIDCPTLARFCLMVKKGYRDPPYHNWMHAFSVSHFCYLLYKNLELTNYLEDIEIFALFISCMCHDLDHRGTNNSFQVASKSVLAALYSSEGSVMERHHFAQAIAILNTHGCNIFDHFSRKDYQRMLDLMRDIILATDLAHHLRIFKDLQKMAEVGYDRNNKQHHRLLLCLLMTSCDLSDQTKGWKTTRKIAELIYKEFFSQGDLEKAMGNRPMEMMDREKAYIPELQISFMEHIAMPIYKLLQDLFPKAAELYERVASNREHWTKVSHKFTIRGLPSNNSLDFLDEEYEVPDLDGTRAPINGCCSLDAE
T2 sequence (P31645 whole entry): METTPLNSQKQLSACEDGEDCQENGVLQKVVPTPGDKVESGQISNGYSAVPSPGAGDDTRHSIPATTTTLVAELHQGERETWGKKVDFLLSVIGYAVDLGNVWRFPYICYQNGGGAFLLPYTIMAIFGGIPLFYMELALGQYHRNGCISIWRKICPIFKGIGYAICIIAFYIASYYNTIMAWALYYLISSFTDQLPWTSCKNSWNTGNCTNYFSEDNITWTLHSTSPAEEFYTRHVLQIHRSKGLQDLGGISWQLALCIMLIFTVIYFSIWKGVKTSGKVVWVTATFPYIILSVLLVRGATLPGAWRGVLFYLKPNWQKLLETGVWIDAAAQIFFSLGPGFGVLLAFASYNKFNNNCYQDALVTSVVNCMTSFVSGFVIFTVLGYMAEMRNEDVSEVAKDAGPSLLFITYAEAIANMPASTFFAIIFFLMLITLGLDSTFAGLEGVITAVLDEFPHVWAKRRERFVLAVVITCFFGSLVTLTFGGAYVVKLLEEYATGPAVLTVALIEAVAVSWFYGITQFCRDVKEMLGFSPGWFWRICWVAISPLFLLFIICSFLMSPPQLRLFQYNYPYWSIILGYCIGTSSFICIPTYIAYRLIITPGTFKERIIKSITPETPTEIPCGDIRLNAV

SMILES | IC50 [1] | PDE4 percentage inhibition at 10 μM [2] | inhibition at 10 µM [3] | inhibition at 10 µM [1, 6] | further results
COc1cc2c(c(OC)c1-c1ccccc1)C(c1cccc(C#N)c1)=NCC(=O)N2 [Compound 1, 3-(6,8-Dimethoxy-2-oxo-7-phenyl-2,3-dihydro-1H-benzo[e][1,4]diazepin-5-yl)-benzonitrile] | 3000 nM | 43.3% | 5% |  | inhibition at 10 µM ([1]; read-out: PDE2 percentage inhibition at 10 μM, Table 1, 10 μM compound, 1 μM cyclic AMP): 9%; inhibition at 10 µM ([1]; read-out: PDE2 percentage inhibition at 10 μM, Table 2, 10 μM compound): 9%
COc1cc2c(c(OC)c1-c1cccnc1)C(c1cccc(C(N)=O)c1)=NCC(=O)N2 [Compound 20, 3-(6,8-Dimethoxy-2-oxo-7-pyridin-3-yl-2,3-dihydro-1H-benzo[e][1,4]diazepin-5-yl)-benzamide] |  |  | 16% |  | PDE2 percentage inhibition at 10 μM ([1]; Table 1, 10 μM compound, 1 μM cyclic AMP): 68%
COc1cc2c(c(OC)c1-c1ccc(Cl)cc1)C(c1cccc(C#N)c1)=NCC(=O)N2 [Compound 2, 3-[7-(4-Chloro-phenyl)-6,8-dimethoxy-2-oxo-2,3-dihydro-1H-benzo[e][1,4]diazepin-5-yl]-benzonitrile] | 730 nM | 58% | 12% | 93% | 
C[C@@H]1CN(CCCn2c3ccccc3c3ccccc32)C[C@H](C)N1 [rimcazole] |  |  |  |  | Response to (+)SKF-10,047 (1.0 10^−4 M) in the presence of the compound ([4]; compound 1.0 10^−6 M): +111%; Response to (+)SKF-10,047 (1.0 10^−4 M) in the presence of the compound ([4]; compound 3.0 10^−6 M): +52%; Effect on the (+) SKF 10,047-induced enhancement of twitch contraction amplitude (in words) ([4]; field-stimulated guinea pig vas deferens): inhibited; Response to (+)SKF-10,047 (1.0 10^−4 M) in the presence of the compound ([4]; third (highest) concentration, printed 1.0 10^−6 M): −12%
COc1cc2c(c(OC)c1-c1ccccc1)C(c1cccc(C#N)c1)=NCC(=O)N2C [Compound 6, 3-(6,8-Dimethoxy-1-methyl-2-oxo-7-phenyl-2,3-dihydro-1H-benzo[e][1,4]diazepin-5-yl)-benzonitrile] | 1800 nM | 37% |  | 80% | inhibition at 10 µM [5]: 40%

From patent US20090215752A1, “Compounds, preparation and therapeutic use thereof” (priority 2005, published 2009)
